The text below walks through data of patent US20250002452A1, “BICYCLOPENTANE DERIVATIVES” (ICAGEN, LLC, priority 2022, published 2025).

The assay deals with human Kv7.2 (Homo sapiens (Human), UniProt O43526). In words: SyncroPatch 384 electrophysiology, activation of Kv7.2 in CHO cells. It is filed as cell-based. The following applies: Kv7.2 activation max %, relative to 30 μM ML-213 max activation. The method, then:
The potency of Kv7 uotentiators was determined using the SyncroPatch 384 (Nanion) high throughput electrophysiology platform.
CHO cells stably expressing either human Kv7.2, Kv7.4 or Kv7.5/7.3 under a constitutive CMV promoter were used for these studies. Cells were maintained in F12 Hams+1 mM L-glutamine (Hyclone) supplemented with 10% FBS (Sigma), 0.3× NEAA (Non-essential Gamino-acids) and 400ug/ml G418 at 37° C. in 5% CO2. Cells were cultured in T-225 flasks (Nunc) for 2-3 days to reach 85-95% confluence prior to electrophysiological recording.
Earle's balanced salt solution (in mM): 135 NaCl, 5.4 KCl, 5 Glucose, 2 CaCl2), 1 MgCl2, 5 HEPES, pH 7.4. Seal enhancer solution (in mM): 90 NaCl, 3 KCl, 35 CaCl2), 10 MgCl2, 10 HEPES, pH 7.4. Extracellular recording solution (in mM): 71 NaCl, 70 NMDG, 13 KCl, 5 Glucose, 2 CaCl2), 1 MgCl2, 10 HEPES, pH 7.4. Intracellular recording solution (in mM): 130 KF, 20 KCl, 4 EGTA, 10 HEPES, 2 EDTA, 0.01 Escin, pH 7.2.
Cells were harvested for electrophysiological recording upon reaching appropriate confluence. Cells were first washed in DPBS (Hyclone, Cat #SH30028.03) and then 2 ml of Accutase (MP Biomedicals #1000449) was added at 28° C. until ˜90% of cells were suspended. F12 HAM's media+1 mM L-glutamine (Hyclone, SH30026.02) was then added to the flask to dilute the accutase. Cells were then triturated until a single cell suspension was achieved, a cell count was performed, and cells were centrifuged for 2 min. at 1,000 rpm. Media was then aspirated, and cells were resuspended in Earle's balanced salt solution to a concentration of 0.75×10^6 cells/ml and allowed to recover for 25 min at 10° C.
At the beginning of each assay, 20 μl of cell suspension was dispensed into each well of a multi-hole 384-well SyncroPatch chip by the onboard pipettor. Cell sealing was initiated, and seal enhancer solution was added to facilitate seal formation. Upon completion of sealing, cells were washed 3 times with extracellular recording solution and the assay voltage protocol was started. Human Kv7.2, Kv7.4 or Kv7.5/7.3 channels were evaluated using a voltage protocol in which cells were voltage-clamped at a holding potential of −60 mV. Potassium currents were continuously activated with a series of three voltage steps to −30 mV for 3 seconds, 40 mV for 1 second and −90 mV for 4 seconds with 12 seconds between successive voltage sweeps. Potassium currents were measured from the −90 mV repolarizing step. Baseline current was assessed for 3.5 minutes prior to the addition of 5.6 μM zinc pyrithione (1μM for Kv7.4). Kv7.2, Kv7.4 or Kv7.5/7.3 current in the presence of zinc pyrithione was acquired over five minutes to allow channels to reach steady state activity prior to addition of test agents. Channel activity was monitored for three minutes preceding the addition of 30 μM ML-213 (3 minutes) to achieve maximum activation. 150 mM TEA with 10 μM XE-991 was applied for 2 minutes to measure the leak current during maximum inhibition of Kv7.2, Kv7.4 or Kv7.5/7.3 channels.
Example 61 Data Analysis Data were collected on the SyncroPatch platform using PatchControl software (Nanion) and processed and analyzed using DataControl Software (Nanion). Percent activation was calculated from potassium current as follows: The average current for the 5 sweeps in the presence of zinc pyrithione immediately preceding test agent addition was taken as the ‘control’ data. Likewise, the average potassium current in the presence of test agents 5 sweeps immediately preceding addition of 30 μM ML-213 was determined for ‘drug’ data. The average potassium current 5 sweeps immediately prior to addition of 150 mM TEA+10 μM XE-991 was determined for ‘max activation’ data while average currents from 5 sweeps immediately following addition of TEA was determined for ‘max inhibition’ data. […]
For the molecule `O=C(NCc1cccc(C2COC2)c1)NC12CC(C(F)(F)F)(C1)C2` [Example 30, 1-[[3-(oxetan-3-yl)phenyl]methyl]-3-[3-(trifluoromethyl)-1-bicyclo[1.1.1]pentanyl]urea], the Kv7.2 max is given as 65%. For `O=C(NCc1cccc(C(F)F)c1)NC12CC(C(F)(F)F)(C1)C2` [Example 31, 1-[[3-(difluoromethyl)phenyl]methyl]-3-[3-(trifluoromethyl)-1-bicyclo[1.1.1]pentanyl]urea], the Kv7.2 max was 60%. Molecule `C#Cc1cccc(CNC(=O)NC23CC(C(F)(F)F)(C2)C3)c1` [Example 32, 1-[(3-ethynylphenyl)methyl]-3-[3-(trifluoromethyl)-1-bicyclo[1.1.1]pentanyl]urea] displayed a Kv7.2 max of 54%.

`O=C(NCc1ccc2c(c1)OC(F)(F)O2)NC12CC(C(F)(F)F)(C1)C2` [Example 33, 1-[(2,2-difluoro-1,3-benzodioxol-5-yl)methyl]-3-[3-(trifluoromethyl)-1-bicyclo[1.1.1]pentanyl]urea]: the Kv7.2 max is on record as 58%. The same measure for `O=C(NCc1cccc(OCF)c1)NC12CC(C(F)(F)F)(C1)C2` [Example 34, 1-[[3-(fluoromethoxy)phenyl]methyl]-3-[3-(trifluoromethyl)-1-bicyclo[1.1.1]pentanyl]urea]: 56%; for `[2H]C([2H])(NC(=O)NC12CC(C(F)(F)F)(C1)C2)c1cccc(OC(F)(F)F)c1` [Example 35, 1-[dideuterio-[3-(trifluoromethoxy)phenyl]methyl]-3-[3-(trifluoromethyl)-1-bicyclo[1.1.1]pentanyl]urea]: 63%; for `O=C(NCc1cccc(Br)c1)NC12CC(C(F)(F)F)(C1)C2` [Example 36, 1-[(3-bromophenyl)methyl]-3-[3-(trifluoromethyl)-1-bicyclo[1.1.1]pentanyl]urea]: 55%. The same measure for `CC(NC(=O)NC12CC(C1)C2)c1cccc(OC(F)(F)F)c1` (centres unmarked) [Example 37, 1-(1-bicyclo[1.1.1]pentanyl)-3-[1-[3-(trifluoromethoxy)phenyl]ethyl]urea]: 44%; for `CC(NC(=O)NC12CC(F)(C1)C2)c1cccc(OC(F)F)c1` (centres unmarked) [Example 38, 1-[1-[3-(difluoromethoxy)phenyl]ethyl]-3-(3-fluoro-1-bicyclo[1.1.1]pentanyl)urea]: 40%; for `O=C(NCc1cccc(S(F)(F)(F)(F)F)c1)NC12CC(C1)C2` [Example 39, 1-(1-bicyclo[1.1.1]pentanyl)-3-[[3-(pentafluoro-λ6-sulfanyl)phenyl]methyl]urea]: 75%.

In turn, `O=C(NCc1cccc(Br)c1)NC12CC(C1)C2` [Example 40, 1-(1-bicyclo[1.1.1]pentanyl)-3-[(3-bromophenyl)methyl]urea] came in with a Kv7.2 max of 58%.

`O=C(NCc1cccc(Cl)c1)NC12CC(C1)C2` [Example 41, 1-(1-bicyclo[1.1.1]pentanyl)-3-[(3-chlorophenyl)methyl]urea] displayed a Kv7.2 max of 49%.

Molecule `CC(C)(C)c1cccc(CNC(=O)NC23CC(C2)C3)c1` [Example 42, 1-(1-bicyclo[1.1.1]pentanyl)-3-[(3-tert-butylphenyl)methyl]urea] returned a Kv7.2 max of 110%. The same measure for `O=C(NCc1cccc(OC(F)F)c1)NC12CC(C1)C2` [Example 43, 1-(1-bicyclo[1.1.1]pentanyl)-3-[[3-(difluoromethoxy)phenyl]methyl]urea]: 78%.

`O=C(N[C@H](CO)c1cccc(Br)c1)NC12CC(C(F)(F)F)(C1)C2` [Example 44, 1-[(1S)-1-(3-bromophenyl)-2-hydroxyethyl]-3-[3-(trifluoromethyl)-1-bicyclo[1.1.1]pentanyl]urea]: the Kv7.2 max is on record as 40%. As for `O=C(NCc1cccc(C=C(F)F)c1)NC12CC(F)(C1)C2` [Example 45, 1-[[3-(2,2-difluoroethenyl)phenyl]methyl]-3-(3-fluoro-1-bicyclo[1.1.1]pentanyl)urea], the Kv7.2 max amounted to 71%. In turn, `CC12CC(NC(=O)NCc3cccc(OC(F)(F)F)c3)(C1)C2` [Example 46, 1-(3-methyl-1-bicyclo[1.1.1]pentanyl)-3-[[3-(trifluoromethoxy)phenyl]methyl]urea] came in with a Kv7.2 max of 86%.

In the case of `N#Cc1cccc(CNC(=O)NC23CC(C(F)(F)F)(C2)C3)c1F` [Example 47, 1-[(3-cyano-2-fluorophenyl)methyl]-3-[3-(trifluoromethyl)-1-bicyclo[1.1.1]pentanyl]urea], the Kv7.2 max is 40%.

`O=C(N[C@@H](CO)c1cccc(C(F)(F)F)c1)NC12CC(C(F)(F)F)(C1)C2` [Example 48, 1-[(1R)-2-hydroxy-1-[3-(trifluoromethyl)phenyl]ethyl]-3-[3-(trifluoromethyl)-1-bicyclo[1.1.1]pentanyl]urea] displayed a Kv7.2 max of 78%. The same measure for `N#CCOc1cccc(CNC(=O)NC23CC(C(F)(F)F)(C2)C3)c1` [Example 49, 1-[[3-(cyanomethoxy)phenyl]methyl]-3-[3-(trifluoromethyl)-1-bicyclo[1.1.1]pentanyl]urea]: 53%. The same measure for `O=C(NCc1cccc(SC(F)(F)F)c1)NC12CC(F)(C1)C2` [Example 50, 1-(3-fluoro-1-bicyclo[1.1.1]pentanyl)-3-[[3-(trifluoromethylsulfanyl)phenyl]methyl]urea]: 72%; for `C[C@H](NC(=O)NC12CC(C1)C2)c1cccc(C(F)(F)F)c1` [Example 51, 1-(1-bicyclo[1.1.1]pentanyl)-3-[(1S)-1-[3-(trifluoromethyl)phenyl]ethyl]urea]: 52%; for `[2H]C([2H])(NC(=O)NC12CC(C(F)(F)F)(C1)C2)c1cccc(C#N)c1` [Example 52, 1-[(3-cyanophenyl)-dideuteriomethyl]-3-[3-(trifluoromethyl)-1-bicyclo[1.1.1]pentanyl]urea]: 42%. `O=C(NC12CC(C1)C2)NC1(c2cccc(C(F)(F)F)c2)CC1` [Example 53, 1-(1-bicyclo[1.1.1]pentanyl)-3-[1-[3-(trifluoromethyl)phenyl]cyclopropyl]urea] returned a Kv7.2 max of 82%. Under `O=C(N[C@@H](CO)c1cccc(C(F)(F)F)c1)NC12CC(C1)C2` [Example 54, 1-(1-bicyclo[1.1.1]pentanyl)-3-[(1R)-2-hydroxy-1-[3-(trifluoromethyl)phenyl]ethyl]urea] stands 78%; under `O=C(N[C@@H](CO)c1cccc(OC(F)(F)F)c1)NC12CC(C(F)(F)F)(C1)C2` [Example 55, 1-[(1R)-2-hydroxy-1-[3-(trifluoromethoxy)phenyl]ethyl]-3-[3-(trifluoromethyl)-1-bicyclo[1.1.1]pentanyl]urea], 77%.

With `O=C(NCc1ccc(F)c(OC(F)F)c1)NC12CC(C(F)(F)F)(C1)C2` [Example 56, 1-[[3-(difluoromethoxy)-4-fluorophenyl]methyl]-3-[3-(trifluoromethyl)-1-bicyclo[1.1.1]pentanyl]urea], the Kv7.2 max is given as 44%.

In the case of `O=C(NCc1cccc(OC(F)(F)F)c1F)NC12CC(C(F)(F)F)(C1)C2` [Example 57, 1-[[3-(trifluoromethoxy)-2-fluorophenyl]methyl]-3-[3-(trifluoromethyl)-1-bicyclo[1.1.1]pentanyl]urea], the Kv7.2 max worked out at 45%.

Regarding `O=C(NCc1cccc(OCC(F)(F)F)c1)NC12CC(C(F)(F)F)(C1)C2` [Example 58, 1-[[3-(2,2,2-trifluoroethoxy)phenyl]methyl]-3-[3-(trifluoromethyl)-1-bicyclo[1.1.1]pentanyl]urea], the Kv7.2 max amounted to 67%.
